The test system of one test is Arabidopsis Col-0. Conditions: selection criterion; ref [17]; cited from earlier work. The text has this: To test the conservation of plant responses to SCOOPs, we measured the production of ROS—a hallmark of LRR-RK activation—triggered by SCOOPs. […] The SCOOP SxS motif is unique across known plant-secreted signaling peptides in contrast to the N-terminal asparag ... || The S5 and S7 binding pockets were functionally validated by testing MIK2 variants using three experimental approaches; A) SCOOP12-binding to MIK2 ectodomain in vitro, B) SCOOP12-induced complex formation with its coreceptor BAK1 in vivo, and C) ROS production upon SCOOP treatments as a marker for receptor complex activation (Fig. 4 and SI Appendix, Fig. S6).

For the next test, the system named is D. strictus MIK2. Description: ROS production, D. strictus MIK2 expressed in N. benthamiana. Format: cell-based, Diptychocarpus strictus. Conditions: 1 μM SCOOP. As for the experimental part:
(§1) removed and ROS production was measured upon addition of a 100-μL assay solution which contained 10 μg/mL
(§2) horseradish peroxidase (P6782, Merck), 10 mM luminol and the treatment (1 μM SCOOP, 0.1 μM flg22 or H2O).
(§3) Luminescence was quantified with a HIGH-RESOLUTION PHOTON COUNTING SYSTEM (HRPCS218, Photek). Four
(§4) technical replicates per biological replicate (specified in Fig. S2) were quantified for each treatment, significant
(§5) differences were determined by performing a two-group Mann-Whitney U Test between each SCOOP treatment
(§6) and the mock treatment. R and the R-packages dplyr (v1.1.2), ggpubr (v.0.6.0), and ggplot2 (v3.4.2) were used to
(§7) analyze and plot the data. The resulting figure was edited in Corel-DRAW Home & Student x7.
(§8) Functional validation MIK2 homologues
(§9) All constructs were created using a hierarchical modular cloning approach facilitated by the MoClo toolkit and the
(§10) MoClo Plant Parts kit (25, 26). For recombinant expression, we used the previously published Arabidopsis MIK2
(§11) sequence (L0 level backbone, CZLp4829) (27), and MIK2 homologues were synthesized with domesticated BsaI […]
(§12) while using diverse Arabidopsis SCOOPs (AA sequences, Dataset S1) and fl g22. Biological replicates were quantified […]
(§13) H2O and rested for a minimum of 30 min in the dark. Two readings were taken in a TECAN SPARK plate reader every […]

The next test concerns R. islandica MIK2. Description: ROS production, R. islandica MIK2 expressed in N. benthamiana. Format: cell-based, Rorippa islandica. The note with it: 1 μM SCOOP. As for the experimental part:
as §1, §2, §3, §4, §5, §6, §7, §8, §9, §10, §11, §12, §13

The next test concerns B. rapa MIK2. Description: ROS production, B. rapa MIK2 expressed in N. benthamiana. Format: cell-based, Brassica rapa. Conditions: 1 μM SCOOP. As for the experimental part:
as §1, §2, §3, §4, §5, §6, §7, §8, §9, §10, §11, §12, §13

Test [1] concerns the target MIK2 ectodomain S292A (S7 binding pocket variant) (Arabidopsis thaliana, UniProt Q8VZG8 44-709, S292A). The test can be described thus: ITC. A general note: ITC needs no label: the signal is the heat of the interaction.
For test [2], the target named is T1, MIK2 (MALE DISCOVERER 1-INTERACTING RECEPTOR-LIKE KINASE 2) ectodomain, wild type (Arabidopsis thaliana, UniProt Q8VZG8 44-709).
T1 chain: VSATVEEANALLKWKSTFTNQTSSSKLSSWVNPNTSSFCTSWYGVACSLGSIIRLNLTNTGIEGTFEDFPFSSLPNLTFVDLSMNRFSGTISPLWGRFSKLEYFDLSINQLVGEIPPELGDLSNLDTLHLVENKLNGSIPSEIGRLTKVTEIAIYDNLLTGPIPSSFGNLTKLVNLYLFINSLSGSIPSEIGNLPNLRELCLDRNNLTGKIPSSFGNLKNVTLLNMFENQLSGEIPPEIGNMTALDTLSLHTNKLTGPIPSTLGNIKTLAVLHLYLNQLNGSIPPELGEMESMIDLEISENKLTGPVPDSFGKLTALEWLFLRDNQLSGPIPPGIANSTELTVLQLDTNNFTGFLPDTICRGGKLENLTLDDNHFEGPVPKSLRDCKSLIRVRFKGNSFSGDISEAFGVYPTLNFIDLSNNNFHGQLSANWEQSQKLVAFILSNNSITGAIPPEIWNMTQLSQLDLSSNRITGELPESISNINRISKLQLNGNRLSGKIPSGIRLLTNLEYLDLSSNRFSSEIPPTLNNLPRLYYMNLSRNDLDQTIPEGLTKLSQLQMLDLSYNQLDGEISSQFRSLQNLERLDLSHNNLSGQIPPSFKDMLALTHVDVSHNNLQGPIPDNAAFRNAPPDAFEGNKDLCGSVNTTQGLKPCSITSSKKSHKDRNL
The test can be described thus: ITC.

Data on three molecules can be found in article PMC11331138, “Leveraging coevolutionary insights and AI-based structural modeling to unravel receptor–peptide ligand-binding mechanisms” (Proceedings of the National Academy of Sciences of the …, 2024).

As a reminder, the Kd is the equilibrium constant for the complex coming apart.

Chain of MIK2 ectodomain S292A (S7 binding pocket variant) (Q8VZG8 44-709 S292A): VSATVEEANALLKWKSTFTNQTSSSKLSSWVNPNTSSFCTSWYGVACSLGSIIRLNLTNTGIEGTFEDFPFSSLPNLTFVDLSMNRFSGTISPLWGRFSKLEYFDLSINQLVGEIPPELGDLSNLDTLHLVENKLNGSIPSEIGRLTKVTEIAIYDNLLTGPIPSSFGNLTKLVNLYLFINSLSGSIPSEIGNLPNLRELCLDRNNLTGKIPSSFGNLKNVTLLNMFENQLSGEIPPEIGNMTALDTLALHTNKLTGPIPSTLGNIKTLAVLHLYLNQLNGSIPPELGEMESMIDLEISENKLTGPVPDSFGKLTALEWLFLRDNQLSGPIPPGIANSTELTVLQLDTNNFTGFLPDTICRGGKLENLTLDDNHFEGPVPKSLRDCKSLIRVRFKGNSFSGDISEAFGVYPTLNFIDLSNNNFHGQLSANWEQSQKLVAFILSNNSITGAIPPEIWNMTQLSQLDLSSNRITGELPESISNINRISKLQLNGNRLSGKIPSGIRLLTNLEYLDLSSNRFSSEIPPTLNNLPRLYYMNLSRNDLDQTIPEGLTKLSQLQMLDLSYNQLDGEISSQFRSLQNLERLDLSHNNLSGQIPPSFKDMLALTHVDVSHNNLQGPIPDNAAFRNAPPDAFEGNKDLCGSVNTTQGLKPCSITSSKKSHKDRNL

As to YVPPSKSRRGKGP [SCOOP16], in the test with Arabidopsis Col-0, the “ROS production upon SCOOP treatment in Arabidopsis” value is “robust ROS production”. Besides, the “SCOOP-induced ROS production (in words)” value in the test on D. strictus MIK2 and in the test on R. islandica MIK2 was “conferred responsiveness” throughout.

Consider RVPRSKSPPDRQW [SCOOP24], for which the “SCOOP-induced ROS production (in words)” value in the test with B. rapa MIK2 was “did not lead to significant ROS production”. The “ROS production upon SCOOP treatment in Arabidopsis” value in the test with Arabidopsis Col-0 is “robust ROS production”.

Regarding PVRSSQSSQAGGR [SCOOP12 (SERINE RICH ENDOGENOUS PEPTIDE 12), synthetic peptide], the values for the Kd in test [1] and in test [2] were 1.24 µM and 2.12 µM, respectively.
